Reference: publication PMC3669009, “Degradation of Phytate by the 6-Phytase from Hafnia alvei: A Combined Structural and Solution Study” (PLoS ONE, 2013)
Blank lines part the entries; values can stand above or below the molecule they belong to.

Experiments:
[1] = target: T1, HaPhy (Hafnia alvei phytase) (Hafnia alvei, UniProt H9TUK5); test: X-ray crystal structure of the complex, […] Å; assay type: binding; conditions: 0.2 M potassium/sodium tartrate, pH 8.4-9.1 (from crystallisation solution); active site; second tartrate at occupancy 0.25
T1 construct: gene phyA; recombinant mature enzyme, purified, residues 1-416; expression details only in SI; monomer in the asymmetric unit; four disulphides
T1 sequence (H9TUK5 34-446): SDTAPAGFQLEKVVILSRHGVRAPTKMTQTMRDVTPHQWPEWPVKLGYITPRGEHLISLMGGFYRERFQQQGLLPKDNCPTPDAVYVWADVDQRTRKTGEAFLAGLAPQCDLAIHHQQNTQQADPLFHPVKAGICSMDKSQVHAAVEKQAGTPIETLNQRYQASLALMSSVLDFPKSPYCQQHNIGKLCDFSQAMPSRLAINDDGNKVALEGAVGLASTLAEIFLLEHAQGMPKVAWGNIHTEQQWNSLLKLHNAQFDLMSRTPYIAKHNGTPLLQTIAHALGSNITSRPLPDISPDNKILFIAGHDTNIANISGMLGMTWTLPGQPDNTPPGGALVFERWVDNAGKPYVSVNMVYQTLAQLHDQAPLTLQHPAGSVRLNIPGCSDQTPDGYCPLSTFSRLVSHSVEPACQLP

[2] = target: T1, HaPhy (Hafnia alvei phytase); test: isothermal titration calorimetry; assay type: binding
[3] = target: T2, YkPhy (Yersinia kristensenii phytase) (Yersinia kristensenii, UniProt H9TUK6); conditions: SPGS buffer pH 5.0 (phosphate from crystallisation solution); two Pi in the active site
T2 construct: gene phyA
T2 sequence (H9TUK6 entry or part of it): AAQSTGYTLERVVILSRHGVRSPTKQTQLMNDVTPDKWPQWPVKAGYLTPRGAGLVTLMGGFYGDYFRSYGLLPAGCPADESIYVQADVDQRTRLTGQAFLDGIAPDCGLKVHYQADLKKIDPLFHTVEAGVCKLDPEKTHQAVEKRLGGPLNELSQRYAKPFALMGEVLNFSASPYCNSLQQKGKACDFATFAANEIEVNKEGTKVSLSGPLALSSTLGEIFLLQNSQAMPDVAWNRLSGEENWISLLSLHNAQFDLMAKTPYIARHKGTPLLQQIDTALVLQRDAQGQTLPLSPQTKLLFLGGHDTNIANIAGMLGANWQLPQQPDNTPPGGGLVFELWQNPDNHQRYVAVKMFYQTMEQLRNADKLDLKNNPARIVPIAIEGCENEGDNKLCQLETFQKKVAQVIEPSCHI

SMILES: O=C(O)C(O)C(O)C(=O)O (stereo not drawn) [L(+)-tartrate]
- X-ray crystal structure of the complex, 1.60 Å [1]: The active site contained a tartrate molecule, a component of the crystallisation buffer

- Kd [2]: ~160 nM
SMILES: O=S(=O)(O)O[C@H]1[C@H](OS(=O)(=O)O)[C@@H](OS(=O)(=O)O)[C@H](OS(=O)(=O)O)[C@@H](OS(=O)(=O)O)[C@H]1OS(=O)(=O)O [MIHS, myo-inositol hexakissulphate]

SMILES: O=P(O)(O)O [Pi, phosphate]
- X-ray crystal structure of the complex, 1.67 Å [3]: Each monomer contains two Pi molecules in its active site
